ChEMBL document CHEMBL1156812, “Novel synthesis of the hexahydroimidazo[1,5b]isoquinoline scaffold: application to the synthesis of glucocorticoid receptor modulators” (J Med Chem, 2010)

Columns and labels:
Glucocorticoid receptor [1] = target: T1, Glucocorticoid receptor (Homo sapiens, UniProt P04150); test: Transactivation of GAL-4 tagged glucocorticoid receptor ligand binding domain expressed in human HeLa cells assessed as NP1 activation by luciferase reporter gene assay; format: cell-based
T1 sequence (P04150 whole entry): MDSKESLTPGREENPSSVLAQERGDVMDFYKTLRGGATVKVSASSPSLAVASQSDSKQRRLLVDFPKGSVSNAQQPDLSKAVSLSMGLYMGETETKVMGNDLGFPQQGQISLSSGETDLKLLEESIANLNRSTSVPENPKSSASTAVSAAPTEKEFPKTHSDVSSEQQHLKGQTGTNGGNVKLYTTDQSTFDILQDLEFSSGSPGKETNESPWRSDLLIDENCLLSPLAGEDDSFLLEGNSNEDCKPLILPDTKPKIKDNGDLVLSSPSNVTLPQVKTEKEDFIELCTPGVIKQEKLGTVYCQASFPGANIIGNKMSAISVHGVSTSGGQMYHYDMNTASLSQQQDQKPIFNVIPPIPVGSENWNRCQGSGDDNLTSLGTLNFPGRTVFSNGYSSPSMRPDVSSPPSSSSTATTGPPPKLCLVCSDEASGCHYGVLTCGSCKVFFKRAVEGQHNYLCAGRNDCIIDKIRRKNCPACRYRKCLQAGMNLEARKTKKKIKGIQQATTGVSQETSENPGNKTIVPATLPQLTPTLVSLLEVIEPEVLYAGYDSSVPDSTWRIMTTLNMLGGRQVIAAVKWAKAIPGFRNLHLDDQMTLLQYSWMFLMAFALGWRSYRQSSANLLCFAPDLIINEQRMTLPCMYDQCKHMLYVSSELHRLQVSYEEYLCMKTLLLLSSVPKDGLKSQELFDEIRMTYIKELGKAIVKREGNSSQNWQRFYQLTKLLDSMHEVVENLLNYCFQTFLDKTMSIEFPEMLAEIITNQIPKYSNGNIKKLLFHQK

Glucocorticoid receptor [2] = target: T1, Glucocorticoid receptor; test: Transrepression activity at glucocorticoid receptor expressed in human A549 cells assessed as inhibition of PMA-induced AP1 activity after 6 hrs by luciferase reporter gene assay; format: cell-based
Androgen receptor = target: T2, Androgen receptor (Homo sapiens, UniProt P10275); test: Binding affinity to androgen receptor
T2 sequence (P10275 whole entry): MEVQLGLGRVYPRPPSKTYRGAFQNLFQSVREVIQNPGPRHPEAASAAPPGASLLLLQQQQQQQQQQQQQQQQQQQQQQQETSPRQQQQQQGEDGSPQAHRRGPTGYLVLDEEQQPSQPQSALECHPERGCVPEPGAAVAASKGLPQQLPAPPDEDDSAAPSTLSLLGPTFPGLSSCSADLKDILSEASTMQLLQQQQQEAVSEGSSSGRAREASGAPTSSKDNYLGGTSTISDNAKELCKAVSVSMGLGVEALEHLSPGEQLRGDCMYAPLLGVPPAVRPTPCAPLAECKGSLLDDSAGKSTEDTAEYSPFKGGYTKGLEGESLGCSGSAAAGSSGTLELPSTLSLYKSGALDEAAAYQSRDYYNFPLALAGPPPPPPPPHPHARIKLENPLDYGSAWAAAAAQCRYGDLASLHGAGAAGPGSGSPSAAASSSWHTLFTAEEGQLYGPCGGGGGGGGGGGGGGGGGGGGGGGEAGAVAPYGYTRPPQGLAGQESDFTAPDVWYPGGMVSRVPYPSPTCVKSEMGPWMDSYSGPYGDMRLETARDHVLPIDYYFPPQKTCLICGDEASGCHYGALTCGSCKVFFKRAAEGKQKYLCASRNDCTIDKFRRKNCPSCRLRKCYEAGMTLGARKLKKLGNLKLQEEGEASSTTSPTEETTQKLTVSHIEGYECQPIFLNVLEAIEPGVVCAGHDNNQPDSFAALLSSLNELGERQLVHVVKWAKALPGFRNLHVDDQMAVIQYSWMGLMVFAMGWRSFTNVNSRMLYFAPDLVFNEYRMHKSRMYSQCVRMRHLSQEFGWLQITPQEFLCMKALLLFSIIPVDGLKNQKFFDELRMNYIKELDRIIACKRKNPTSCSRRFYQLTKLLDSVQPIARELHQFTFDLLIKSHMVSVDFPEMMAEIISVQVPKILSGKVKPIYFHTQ

Glucocorticoid receptor [3] = target: T1, Glucocorticoid receptor; test: Displacement of GS-red from human glucocorticoid receptor by fluorescent polarization assay
Glucocorticoid receptor [4] = target: T1, Glucocorticoid receptor; test: Transrepression activity at glucocorticoid receptor expressed in human A549 cells assessed as inhibition of IL-1-beta-induced NF-kappaB dependent E-selection promoter activation after 6 hrs by luciferase reporter gene based ELAM assay; format: cell-based
Progesterone receptor = target: T3, Progesterone receptor (Homo sapiens, UniProt P06401); test: Binding affinity to progesterone receptor
T3 sequence (P06401 whole entry): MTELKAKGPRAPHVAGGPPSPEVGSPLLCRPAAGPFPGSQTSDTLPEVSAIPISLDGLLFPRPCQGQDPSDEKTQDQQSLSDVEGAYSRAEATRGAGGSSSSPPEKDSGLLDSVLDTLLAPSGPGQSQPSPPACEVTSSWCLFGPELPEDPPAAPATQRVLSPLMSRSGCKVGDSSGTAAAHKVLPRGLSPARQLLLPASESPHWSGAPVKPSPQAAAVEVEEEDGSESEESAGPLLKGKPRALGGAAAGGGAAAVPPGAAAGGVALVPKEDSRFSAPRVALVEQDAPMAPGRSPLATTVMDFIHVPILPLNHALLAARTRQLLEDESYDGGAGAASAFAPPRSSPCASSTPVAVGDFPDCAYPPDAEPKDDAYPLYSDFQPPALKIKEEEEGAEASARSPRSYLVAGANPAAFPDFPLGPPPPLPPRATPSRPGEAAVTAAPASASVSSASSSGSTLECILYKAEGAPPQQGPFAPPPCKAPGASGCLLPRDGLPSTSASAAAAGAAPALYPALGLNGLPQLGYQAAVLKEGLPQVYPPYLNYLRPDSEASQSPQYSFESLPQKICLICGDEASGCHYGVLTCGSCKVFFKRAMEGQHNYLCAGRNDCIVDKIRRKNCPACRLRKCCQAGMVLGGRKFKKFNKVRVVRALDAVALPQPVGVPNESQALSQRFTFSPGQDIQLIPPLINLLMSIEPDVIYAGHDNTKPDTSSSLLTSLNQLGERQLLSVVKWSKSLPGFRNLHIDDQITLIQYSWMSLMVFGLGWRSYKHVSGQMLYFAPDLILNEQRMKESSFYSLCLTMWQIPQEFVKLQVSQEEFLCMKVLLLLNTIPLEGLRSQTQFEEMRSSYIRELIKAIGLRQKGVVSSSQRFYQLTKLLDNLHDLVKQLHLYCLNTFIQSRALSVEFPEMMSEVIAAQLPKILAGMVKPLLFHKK

Row | Structure (SMILES) | EC50 (Glucocorticoid receptor [1]) [nM] | EC50 (Glucocorticoid receptor [2]) [nM] | IC50 (Androgen receptor) [nM] | Ki (Glucocorticoid receptor [3]) [nM] | EC50 (Glucocorticoid receptor [4]) [nM] | EC50 (Glucocorticoid receptor [2]; a549) [nM] | EC50 (Glucocorticoid receptor [4]; a549) [nM] | Ki (Progesterone receptor) [nM]
1 | C[C@]12Cn3cnc(-c4ccc(F)cc4)c3C=C1CCC[C@@H]2[C@](C)(O)C1CC1 | > 5000 | 37 | > 4000 | 2.6 | 49 |  |  | 
2 | CO[C@](C)(c1cccs1)[C@H]1CCCC2=Cc3c(-c4ccc(F)cc4)ncn3C[C@@]21C |  | > 5000 | > 4000 | 33 | > 5000 |  |  | 
3 | C[C@]12Cc3cnn(-c4ccc(F)cc4)c3C=C1CCC[C@@H]2[C@](C)(O)c1ccsc1 |  |  | > 4000 | 0.8 |  |  |  | 
4 | CCCC[C@@](C)(O)[C@H]1CCCC2=Cc3c(-c4ccc(F)cc4)ncn3C[C@@]21C | 1130 | 34 | > 4000 | 7.9 | 130 |  |  | 
5 | C=CCC(O)C1CCCC2=Cc3c(-c4ccc(F)cc4)ncn3CC21C (single isomer, unassigned; diastereomer 2) |  |  |  | 9 |  | > 2500 | > 5000 | 
6 | C[C@]12Cn3cnc(-c4ccc(F)cc4)c3C=C1CCC[C@@H]2[C@](C)(O)CCc1ccccc1 |  |  | > 4000 |  |  |  |  | 
7 | C[C@]12Cn3cnc(-c4ccc(F)cc4)c3C=C1CCC[C@@H]2[C@](C)(O)C1CCCCC1 | 470 | 2 | > 4000 | 3.1 | 33 |  |  | 
8 | C[C@]12Cn3cnc(-c4ccc(F)cc4)c3C=C1CCC[C@@H]2[C@](C)(O)c1nccs1 | 572 | 110 | > 4000 | 3 | 92 |  |  | 
9 | C[C@]12Cc3cnn(-c4ccc(F)cc4)c3C=C1CCC[C@@H]2[C@](C)(O)c1ccc(F)cc1 |  |  | > 4000 | 2.5 |  |  |  | 
10 | C=CCC(O)C1CCCC2=Cc3c(-c4ccc(F)cc4)ncn3CC21C (single isomer, unassigned; diastereomer 1) |  | > 2500 |  | 8 | > 5000 |  |  | 
11 | C[C@]12Cn3cnc(-c4ccc(F)cc4)c3C=C1CCC[C@@H]2[C@](C)(O)Cc1ccc(F)cc1 | 760 | 227 | > 4000 | 11 | 121 |  |  | 
12 | Cc1ccc([C@@](C)(O)[C@H]2CCCC3=Cc4c(-c5ccc(F)cc5)ncn4C[C@@]32C)s1 | 272 | 28 | > 4000 | 1.5 | 18 |  |  | 
13 | C[C@]12Cn3cnc(-c4ccc(F)cc4)c3C=C1CCC[C@@H]2[C@](C)(O)c1ccc(C#N)cc1 | > 10000 | 59 | > 4000 | 2.5 | 105 |  |  | 
14 | C[C@]12Cn3cnc(-c4ccc(F)cc4)c3C=C1CCC[C@@H]2[C@](C)(O)c1ccsc1 | > 10000 | 5 | > 4000 | 1 | 37 |  |  | 
15 | Cc1ccccc1[C@@](C)(O)[C@H]1CCCC2=Cc3c(-c4ccc(F)cc4)ncn3C[C@@]21C | 920 | 25 | > 4000 | 2 | 31 |  |  | 
16 | C[C@]12Cn3cnc(-c4ccc(F)cc4)c3C=C1CCC[C@@H]2[C@](C)(O)c1cccs1 |  | 52 | > 4000 | 2 | 41 |  |  | 230

Row | Structure (SMILES) | EC50 (Glucocorticoid receptor [1]) [nM] | EC50 (Glucocorticoid receptor [2]) [nM] | IC50 (Androgen receptor) [nM] | Ki (Glucocorticoid receptor [3]) [nM] | EC50 (Glucocorticoid receptor [4]) [nM] | EC50 (Glucocorticoid receptor [2]; a549) [nM] | EC50 (Glucocorticoid receptor [4]; a549) [nM] | Ki (Progesterone receptor) [nM]
17 | C=CC[C@@](C)(O)[C@H]1CCCC2=Cc3c(-c4ccc(F)cc4)ncn3C[C@@]21C | > 5000 | 57 | > 4000 | 4.3 | 79 |  |  | 1810
18 | C[C@]12Cn3cnc(-c4ccc(F)cc4)c3C=C1CCC[C@@H]2[C@](C)(O)c1ccccn1 |  |  | > 4000 |  |  |  |  | 
19 | C[C@]12Cn3cnc(-c4ccc(F)cc4)c3C=C1CCC[C@@H]2[C@H](O)c1ccc(F)cc1 (stereo in doubt; 19) |  | 272 |  | 21 | 243 |  |  | 451
20 | Cc1cccc([C@@](C)(O)[C@H]2CCCC3=Cc4c(-c5ccc(F)cc5)ncn4C[C@@]32C)c1 | 1130 | 9.5 | > 4000 | 2.5 | 99 |  |  | 
21 | C[C@]12Cn3cnc(-c4ccc(F)cc4)c3C=C1CCC[C@@H]2[C@H](O)c1ccc(F)cc1 (stereo in doubt; 18) |  | > 5000 |  | 25 | > 5000 |  |  | 
22 | C[C@]12Cn3cnc(-c4ccc(F)cc4)c3C=C1CCC[C@@H]2[C@](C)(O)C(F)(F)F | > 10000 | 31 | > 4000 | 5.2 |  |  |  | 
23 | C[C@]12Cn3cnc(-c4ccc(F)cc4)c3C=C1CCC[C@@H]2[C@](C)(O)c1ccc(F)cc1 |  | 20 | > 4000 | 2 | 44 |  |  | 
24 | CC(C)C[C@@](C)(O)[C@H]1CCCC2=Cc3c(-c4ccc(F)cc4)ncn3C[C@@]21C | 876 | 132 | > 4000 | 9 | 133 |  |  | 
25 | C[C@]12Cn3cnc(-c4ccc(F)cc4)c3C=C1CCC[C@@H]2[C@](C)(O)c1ccccc1 | > 5000 | 16 | > 4000 | 1 | 61 |  |  | 
26 | C=CC[C@H](O)C1CCCC2=Cc3c(cnn3-c3ccc(F)cc3)C[C@@]21C (stereo not given in full) |  | 9.3 | > 4000 | 3.9 |  |  |  | 
27 | C[C@]12Cc3cnn(-c4ccc(F)cc4)c3C=C1CCCC2[C@@H](O)c1csc2ccccc12 (stereo not given in full) |  | 1.8 |  | 1.8 |  |  |  | 
28 | C[C@]12Cn3cnc(-c4ccc(F)cc4)c3C=C1CCC[C@@H]2[C@](C)(O)c1ccncc1 |  |  | > 4000 |  |  |  |  | 
29 | C[C@]12Cn3cnc(-c4ccc(F)cc4)c3C=C1CCC[C@@H]2[C@](C)(O)c1cccnc1 |  |  | > 4000 |  |  |  |  | 
30 | C[C@]12Cn3cnc(-c4ccc(F)cc4)c3C=C1CCC[C@@H]2[C@](C)(O)c1cccc(C#N)c1 | > 10000 | 18 | > 4000 | 1 | 31 |  |  | 
31 | C[C@]12Cn3cnc(-c4ccc(F)cc4)c3C=C1CCC[C@@H]2[C@](C)(O)C1CCOCC1 |  |  | > 4000 |  |  |  |  | 
